conditions: pH 2.7, LogP, HPLC on reversed phase columns, pH 2.7, 0.1% formic acid in water / acetonitrile gradient

Which chromatographic logP does the source give for `Cn1oc(=O)nc1/C(=N\OCc1cccc(N)n1)c1ccccc1` [Example 11, 3-[(Z)-{[(6-aminopyridin-2-yl)methoxy]imino}(phenyl)methyl]-2-methyl-1,2,4-oxadiazol-5(2H)-one] here?
The chromatographic logP was 0.84.

With `COc1cccc(C(=NOCc2cccc(N)n2)c2nc(=O)on2C)c1` [Example 24] as the molecule, how does the chromatographic logP read?
The chromatographic logP was 1.03.

With `CC(C)n1oc(=O)nc1C(=NOCc1cccc(NC(=O)OC(C)(C)C)n1)c1ccccc1` [Example 41] as the molecule, how does the chromatographic logP read?
Its chromatographic logP is 3.8.

For `COCCn1oc(=O)nc1C(=NOCc1cccc(NC(=O)OC(C)(C)C)n1)c1ccccc1` [Example 42], which chromatographic logP is on record?
Its chromatographic logP is 3.61.

With `COc1cccc(C(=NOCc2cccc(NC(=O)c3cccc(C)c3)n2)c2nc(=O)o[nH]2)c1` [Example 61] as the molecule, how does the chromatographic logP read?
Its chromatographic logP is 3.31.

With `COc1cccc(C(=NOCc2cccc(NC(=O)c3ccc(F)cc3)n2)c2nc(=O)o[nH]2)c1` [Example 62] as the molecule, how does the chromatographic logP read?
The chromatographic logP was 3.09.

Which chromatographic logP does the source give for `COc1cccc(C(=NOCc2cccc(NC(=O)c3ccccc3)n2)c2nc(=O)o[nH]2)c1` [Example 67] here?
Its chromatographic logP is 2.96.

Which chromatographic logP does the source give for `Cc1ccc(C(=O)Nc2cccc(CON=C(c3cccc(F)c3)c3nc(=O)o[nH]3)n2)cc1` [Example 77] here?
The chromatographic logP was 3.33.

With `Cc1cccc(C(=NOCc2cccc(NC(=O)CCc3ccccc3)n2)c2nc(=O)on2C)c1` [Example 79] as the molecule, how does the chromatographic logP read?
Its chromatographic logP is 3.48.

With `Cc1cccc(C(=NOCc2cccc(NC(=O)Cc3ccccc3)n2)c2nc(=O)on2C)c1` [Example 81] as the molecule, how does the chromatographic logP read?
Its chromatographic logP is 3.23.

With `Cc1cccc(C(=O)Nc2cccc(CON=C(c3cccc(C)c3)c3nc(=O)on3C)n2)c1` [Example 86] as the molecule, how does the chromatographic logP read?
Its chromatographic logP is 3.55.

With `COc1cccc(C(=O)Nc2cccc(CON=C(c3cccc(C)c3)c3nc(=O)on3C)n2)c1` [Example 88] as the molecule, how does the chromatographic logP read?
The chromatographic logP was 3.31.

With `Cn1oc(=O)nc1C(=NOCc1cccc(NC(=O)c2ccccc2)n1)c1cccc(F)c1` [Example 89] as the molecule, how does the chromatographic logP read?
The chromatographic logP was 3.

With `CC(C)CC(=O)Nc1cccc(CON=C(c2cccc(F)c2)c2nc(=O)on2C)n1` [Example 90] as the molecule, how does the chromatographic logP read?
Its chromatographic logP is 2.92.

For `Cc1cccc(C(=NOCc2cccc(NC(=O)OCCC(C)C)n2)c2nc(=O)on2C)c1` [Example 91], which chromatographic logP is on record?
Its chromatographic logP is 4.03.

For `Cn1oc(=O)nc1C(=NOCc1cccc(NC(=O)c2ccc(F)cc2)n1)c1cccc(F)c1` [Example 92], which chromatographic logP is on record?
Its chromatographic logP is 3.15.

Which chromatographic logP does the source give for `COc1cccc(C(=NOCc2cccc(NC(=O)C(C)(C)C)n2)c2nc(=O)on2C)c1` [Example 93] here?
The chromatographic logP was 2.92.

With `C#CCOC(=O)Nc1cccc(CON=C(c2cccc(OC)c2)c2nc(=O)on2C)n1` [Example 95] as the molecule, how does the chromatographic logP read?
Its chromatographic logP is 2.63.

Which chromatographic logP does the source give for `Cc1cccc(C(=NOCc2cccc(NC(=O)Cc3cccc(F)c3)n2)c2nc(=O)on2C)c1` [Example 98] here?
Its chromatographic logP is 3.31.

For `C#CCOC(=O)Nc1cccc(CON=C(c2cccc(C)c2)c2nc(=O)on2C)n1` [Example 108], which chromatographic logP is on record?
The chromatographic logP was 2.84.

With `CCn1oc(=O)nc1C(=NOCc1cccc(N)n1)c1ccccc1` [Example 111] as the molecule, how does the chromatographic logP read?
The chromatographic logP was 1.07.

For `Cn1oc(=O)nc1C(=NOCc1cccc(NC(=O)OC(C)(C)C)n1)c1cccc(F)c1F` [Example 113], which chromatographic logP is on record?
Its chromatographic logP is 3.39.

For `Cn1oc(=O)nc1C(=NOCc1cccc(NC(=O)CC2CCCC2)n1)c1ccccc1` [Example 115], which chromatographic logP is on record?
The chromatographic logP was 3.29.

With `Cn1oc(=O)nc1C(=NOCc1cccc(NC(=O)C2CCCC2)n1)c1ccccc1` [Example 117] as the molecule, how does the chromatographic logP read?
Its chromatographic logP is 2.98.

For `Cn1oc(=O)nc1C(=NOCc1cccc(NC(=O)OCCC2CCCC2)n1)c1ccccc1` [Example 118], which chromatographic logP is on record?
The chromatographic logP was 4.26.

Which chromatographic logP does the source give for `Cn1oc(=O)nc1C(=NOCc1cccc(NC(=O)CCc2ccccc2)n1)c1ccccc1` [Example 119] here?
Its chromatographic logP is 3.21.

Which chromatographic logP does the source give for `CCCCCCC(=O)Nc1cccc(CON=C(c2ccccc2)c2nc(=O)on2C)n1` [Example 120] here?
The chromatographic logP was 3.65.

For `Cn1oc(=O)nc1C(=NOCc1cccc(NC(=O)OCC(C)(C)C)n1)c1ccccc1` [Example 121], which chromatographic logP is on record?
Its chromatographic logP is 3.7.

With `C#CCCCOC(=O)Nc1cccc(CON=C(c2ccccc2)c2nc(=O)on2C)n1` [Example 122] as the molecule, how does the chromatographic logP read?
Its chromatographic logP is 2.94.

With `C=CCCCCOC(=O)Nc1cccc(CON=C(c2ccccc2)c2nc(=O)on2C)n1` [Example 123] as the molecule, how does the chromatographic logP read?
Its chromatographic logP is 3.76.

Reference: patent US9556158B2, “Fungicidal 3-[(pyridin-2-ylmethoxyimino)(phenyl)methyl]-2-substituted-1,2,4-oxadiazol-5(2H)-one derivatives” (BAYER INTELLECTUAL PROPERTY GMBH, priority 2011, dated 2017)
